The record followed here is patent US8969394B2, “Thiophenecarboxamide derivatives as EP4 receptor ligands” (Merck Frosst Canada Ltd., priority 2006, dated 2015).

The assay addresses EP4 receptor (Homo sapiens (Human), UniProt P35408). In words: Prostanoid receptor binding assay, hEP4 (membranes of transfected HEK 293(ebna) cells). The following applies: radioligand binding, HEK 293(ebna) membranes, 10 mM MES/KOH pH 6.0. As to the method:
Prostanoid receptor cDNAs corresponding to full length coding sequences are subcloned into the appropriate sites of mammalian expression vectors and transfected into HEK 293(ebna) cells. HEK 293(ebna) cells expressing the individual cDNAs are grown under selection and individual colonies are isolated after 2-3 weeks of growth using the cloning ring method and subsequently expanded into clonal cell lines.
Transfected HEK 293(ebna) cells are maintained in culture, harvested and membranes are prepared by differential centrifugation, following lysis of the cells in the presence of protease inhibitors, for use in receptor binding assays. Prostanoid receptor binding assays (for DP1, DP2 (CRTH2), EP1, EP2, EP3-III, EP4, FP, IP, and TP) are performed in 10 mM MES/KOH (pH 6.0) (EPs, FP and TP) or 10 mM HEPES/KOH (pH 7.4) (DPs and IP), containing 1 mM EDTA, 2.5-30 mM divalent cation and the appropriate radioligand. Synthetic compounds are added in dimethylsulfoxide which is kept constant at 1% (v/v) in all incubations. The reaction is initiated by addition of membrane protein. Non-specific binding is determined in the presence of 10 μM of the corresponding non-radioactive prostanoid. Incubations are conducted for 60-90 min at room temperature or 30° C. and terminated by rapid filtration. Specific binding is calculated by subtracting non specific binding from total binding. The residual specific binding at each ligand concentration is calculated and expressed as a function of ligand concentration in order to construct sigmoidal concentration-response curves. The binding affinity of the compounds is determined by calculating the equilibrium inhibition constant (Ki) from the equation Ki=InPt/1+[radioligand]/Kd where Kd is the equilibrium dissociation constant for the radioligand:receptor interaction and InPt is the inflection point of the dose-response curves.

Chain of EP4 receptor (P35408 whole entry): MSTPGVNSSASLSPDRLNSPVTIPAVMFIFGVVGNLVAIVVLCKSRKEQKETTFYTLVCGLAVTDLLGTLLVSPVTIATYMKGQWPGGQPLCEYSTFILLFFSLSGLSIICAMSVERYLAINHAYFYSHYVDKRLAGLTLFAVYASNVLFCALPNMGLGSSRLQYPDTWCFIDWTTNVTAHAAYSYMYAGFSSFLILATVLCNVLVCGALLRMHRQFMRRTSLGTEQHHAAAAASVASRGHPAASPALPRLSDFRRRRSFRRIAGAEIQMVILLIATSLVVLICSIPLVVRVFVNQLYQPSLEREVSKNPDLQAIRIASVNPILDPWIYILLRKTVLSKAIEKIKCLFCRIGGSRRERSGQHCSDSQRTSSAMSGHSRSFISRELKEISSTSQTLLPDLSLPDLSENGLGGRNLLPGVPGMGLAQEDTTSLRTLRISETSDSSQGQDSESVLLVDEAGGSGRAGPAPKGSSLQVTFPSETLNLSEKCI

As a reminder, the Ki is a dissociation constant, usually derived from enzyme kinetics or from competition with a known ligand. A lower Ki goes with tighter binding. Compound `CC(NC(=O)c1sc(Cl)cc1Cc1cccc(Cl)c1)c1ccc(C(=O)O)cc1` (stereo not drawn) [Example 1, 4-[1-({[5-chloro-3-(3-chlorobenzyl)-2-thienyl]carbonyl}amino)ethyl]-benzoic acid] registered a Ki of 5.2 ± 1.1 nM. Take `CC(NC(=O)c1sc(Cl)cc1Cc1cccc(Cl)c1)c1ccc(-c2nn[nH]n2)cc1` (stereo not drawn) [Example 2, 5-chloro-3-(3-chlorobenzyl)-N-{1-[4-(1H-tetrazol-5-yl)phenyl]ethyl}-thiophene-2-carboxamide]: the affinity corresponds to a Ki of 2.6 ± 0.6 nM. With `C[C@H](NC(=O)c1cscc1Cc1cccc(Cl)c1)c1ccc(C(=O)O)cc1` [Example 3, 4-[(1S)-1-({[4-(3-chlorobenzyl)-3-thienyl]carbonyl}amino)ethyl]benzoic acid] the figure was 7.9 ± 0.6 nM. `C[C@H](NC(=O)c1csc(Br)c1Cc1cccc(Cl)c1)c1ccc(C(=O)O)cc1` [Example 4, 4-[(1S)-1-({[5-bromo-4-(3-chlorobenzyl)-3-thienyl]carbonyl}amino)ethyl]benzoic acid] showed a Ki of 0.71 ± 0.01 nM. Take `C[C@H](NC(=O)c1c(Br)sc(Br)c1Cc1cccc(Cl)c1)c1ccc(C(=O)O)cc1` [Example 5, 4-[(1S)-1-({[2,5-dibromo-4-(3-chlorobenzyl)-3-thienyl]carbonyl}amino)ethyl]benzoic acid]: the affinity, expressed as Ki, was 0.47 ± 0.01 nM. Compound `COC(=O)c1ccc([C@H](C)NC(=O)c2c(Cl)sc(Cl)c2Cc2cccc(Cl)c2)cc1` [Example 6, methyl 4-[(1S)-1-({[2,5-dichloro-4-(3-chlorobenzyl)-3-thienyl]carbonyl}amino)ethyl]benzoate] registered a Ki of 124 nM.

In the case of `C[C@H](NC(=O)c1c(Cl)sc(Cl)c1Cc1cccc(Cl)c1)c1ccc(C(=O)O)cc1` [Example 7, 4-[(1S)-1-({[2,5-dichloro-4-(3-chlorobenzyl)-3-thienyl]carbonyl}amino)ethyl]benzoic acid], the affinity corresponds to a Ki of 1.3 ± 0.6 nM. As to `C[C@H](NC(=O)c1c(Cl)sc(Cl)c1C(OC1CCCCO1)c1cccc(Cl)c1)c1ccc(C(=O)O)cc1` (stereo partly drawn) [Example 8], the Ki was 51 nM.

The compound `C[C@H](NC(=O)c1c(Cl)sc(Cl)c1C(O)c1cccc(Cl)c1)c1ccc(C(=O)O)cc1` (stereo partly drawn) [Example 9, 4-{(1S)-1-[({2,5-dichloro-4-[(3-chlorophenyl)(hydroxy)methyl]-3-thienyl}carbonyl)amino]ethyl}benzoic acid] registered a Ki of 1.8 nM. With `C[C@H](NC(=O)c1c(Cl)sc(Cl)c1C(=O)c1cccc(Cl)c1)c1ccc(C(=O)O)cc1` [Example 10, 4-[(1S)-1-({[2,5-dichloro-4-(3-chlorobenzoyl)-3-thienyl]carbonyl}amino)ethyl]benzoic acid], the affinity corresponds to a Ki of 7.4 ± 1.3 nM. On to `Cc1sc(C)c(C(=O)N[C@@H](C)c2ccc(C(=O)O)cc2)c1Cc1ccc(C(F)(F)F)cc1` [Example 12, 4-{(1S)-1-[({2,5-dimethyl-4-[4-(trifluoromethyl)benzyl]-3-thienyl}carbonyl)amino]ethyl}benzoic acid], for which the Ki was determined as 1.4 ± 0.4 nM. Regarding `Cc1sc(C)c(C(=O)NC2(c3ccc(-c4nn[nH]n4)cc3)CC2)c1Cc1ccc(C(F)(F)F)cc1` [Example 14, 2,5-dimethyl-N-{1-[4-(2H-tetrazol-5-yl)phenyl]cyclopropyl}-4-[4-(trifluoromethyl)benzyl]thiophene-3-carboxamide], the inhibitory constant (Ki) is 0.6 ± 0.1 nM. Regarding `Cc1sc(C)c(C(=O)NC2(c3ccc(C(=O)O)cc3)CC2)c1Cc1ccc(C(F)(F)F)cc1` [Example 16, 4-{1-[({2,5-dimethyl-4-[4-(trifluoromethyl)benzyl]-3-thienyl}carbonyl)amino]cyclopropyl}benzoic acid], the affinity corresponds to a Ki of 0.5 ± 0.1 nM. Turning to `Cc1sc(C)c(C(=O)N[C@@H](C)c2ccc(C(=O)NS(C)(=O)=O)cc2)c1Cc1ccc(C(F)(F)F)cc1` [Example 18, 2,5-dimethyl-N-[(1S)-1-(4-{[(methylsulfonyl)amino]carbonyl}phenyl)ethyl]-4-[4-(trifluoromethyl)benzyl]thiophene-3-carboxamide], the Ki was 308 nM. For the compound `Cc1sc(C)c(C(=O)N[C@@H](C)c2ccc(C(=O)NS(=O)(=O)c3ccccc3)cc2)c1Cc1ccc(C(F)(F)F)cc1` [Example 19, 2,5-dimethyl-N-[(1S)-1-(4-{[(phenylsulfonyl)amino]carbonyl}phenyl)ethyl]-4-[4-(trifluoromethyl)benzyl]thiophene-3-carboxamide], the inhibition constant (Ki) came to 133 nM. With `C[C@@H](NC(=O)c1c(Cl)sc(Cl)c1Cc1cccc(Cl)c1)c1ccc(C(=O)O)cc1` [Example 20, 4-[(1R)-1-({[2,5-dichloro-4-(3-chlorobenzyl)-3-thienyl]carbonyl}amino)-ethyl]benzoic acid] the figure was 0.9 ± 0.2 nM. For `C[C@H](NC(=O)c1c(Cl)sc(Cl)c1Cc1cccc(C(F)(F)F)c1)c1ccc(C(=O)O)cc1` [Example 21, 4-{(1S)-1-[({2,5-dichloro-4-[3-(trifluoromethyl)benzyl]-3-thienyl}carbonyl)-amino]ethyl}benzoic acid], the Ki was found to be 0.8 ± 0.2 nM. Take `O=C(O)c1ccc(CNC(=O)c2c(Cl)sc(Cl)c2Cc2cccc(Cl)c2)cc1` [Example 22, 4-[({[2,5-dichloro-4-(3-chlorobenzyl)-3-thienyl]carbonyl}amino)-methyl]benzoic acid]: affinity was put at a Ki of 0.9 ± 0.1 nM. With `Cc1sc(C)c(C(=O)N[C@@H](C)c2ccc(C(=O)O)cc2)c1Cc1cccc(Cl)c1` [Example 23, 4-[(1S)-1-({[4-(3-chlorobenzyl)-2,5-dimethyl-3-thienyl]carbonyl}amino)-ethyl]benzoic acid] the figure was 3.1 ± 0.4 nM. `Cc1sc(C)c(C(=O)N[C@@H](C)c2ccc(C(=O)O)cc2)c1Cc1cccc(C(F)(F)F)c1` [Example 24, 4-{(1S)-1-[({2,5-dimethyl-4-[3-(trifluoromethyl)benzyl]-3-thienyl}carbonyl)-amino]ethyl}benzoic acid] registered a Ki of 2.4 ± 0.2 nM. In the case of `Cc1sc(C)c(C(=O)NCc2ccc(C(=O)O)c(Cl)c2)c1Cc1cccc(Cl)c1` [Example 25, 2-chloro-4-[({[4-(3-chlorobenzyl)-2,5-dimethyl-3-thienyl]carbonyl}amino)-methyl]benzoic acid], the Ki was found to be 30 nM. In the case of `Cc1sc(C)c(C(=O)NC2(c3ccc(-c4nn[nH]n4)cc3)CC2)c1Cc1cccc(C(F)(F)F)c1` [Example 26, 2,5-dimethyl-N-{1-[4-(2H-tetrazol-5-yl)phenyl]cyclopropyl}-4-[3-(trifluoromethyl)benzyl]thiophene-3-carboxamide] it was 0.7 ± 0.2 nM.

In turn, `Cc1sc(C)c(C(=O)NC2(c3ccc(C(=O)O)cc3)CC2)c1Cc1cccc(C(F)(F)F)c1` [Example 28, 4-{1-[({2,5-dimethyl-4-[3-(trifluoromethyl)benzyl]-3-thienyl}carbonyl)-amino]cyclopropyl}benzoic acid] yielded a Ki of 0.8 ± 0.2 nM. Regarding `Cc1sc(C)c(C(=O)N[C@@H](C)c2ccc(C(=O)O)cc2)c1Cc1ccc(Cl)cc1` [Example 30, 4-[(1S)-1-({[4-(4-chlorobenzyl)-2,5-dimethyl-3-thienyl]carbonyl}amino)-ethyl]benzoic acid], the Ki is 3.4 ± 0.2 nM.
